Experimental data from patent US8586098B2, “Loading of hydrophobic drugs into hydrophilic polymer delivery systems” (Biocompatibles UK Limited, priority 2006, dated 2013).
Values after ≈ are worked out from the molar mass of the structure shown. Where two headings read alike, the source gives them in different places.

Assays:
[1] = solubility in water at room temperature; type: physicochemical; details: for Sol^y in water: room temperature
Text: For these compounds the following table gives comparison water and solvent solubilities at room temperature.

[2] = solubility in DMSO at room temperature; type: physicochemical; details: for Sol^y in DMSO / Sol^y Ratio: room temperature; for Sol^y Ratio: solubility in solvent (DMSO):solubility in water
Text: For these compounds the following table gives comparison water and solvent solubilities at room temperature. […]

[3] = background description; cited from earlier work
[4] = background description; cited from earlier work; remark: listed apart in the source
[5] = benzyl alcohol, chloroform, acetone, acetonitrile; cited from earlier work

CC[C@@]1(O)C(=O)OCc2c1cc1n(c2=O)Cc2cc3ccccc3nc2-1 [Camptothecin]
Sol^y in water [1]: insol (insoluble means less than 10 mg/l) | Sol^y in DMSO [2]: 10 g/L | Sol^y Ratio [2]: >10^3

C[C@@H]1C[C@H]2[C@@H]3CCC4=CC(=O)C=C[C@]4(C)[C@@]3(F)[C@@H](O)C[C@]2(C)[C@@]1(O)C(=O)CO [Dexamethasone]
solubility in water (in words) ([1]; Example 3): practically insoluble in water | Sol^y in water [1]: insol (insoluble means less than 10 mg/l) | solubility ([2]; DMSO, organic solvent or mixture, room temp, Example 3): ~60 mg/mL (≈ 153 mM) | Sol^y in DMSO [2]: 600 g/L | Sol^y Ratio [2]: >10^5

CN(Cc1cnc2nc(N)nc(N)c2n1)c1ccc(C(=O)N[C@@H](CCC(=O)O)C(=O)O)cc1 [Methotrexate]
Sol^y in water [1]: insol (insoluble means less than 10 mg/l) | Sol^y in DMSO [2]: 200 g/L | Sol^y Ratio [2]: >5 × 10^4

CC(=O)O[C@H]1C(=O)[C@@]2(C)[C@H]([C@H](OC(=O)c3ccccc3)[C@]3(O)C[C@H](OC(=O)[C@H](O)[C@@H](NC(=O)c4ccccc4)c4ccccc4)C(C)=C1C3(C)C)[C@]1(OC(C)=O)CO[C@@H]1C[C@@H]2O [Paclitaxel, 5β,20-Epoxy-1,2α,4,7β,10β,13α-hexahydroxytax-11-en-9-one 4,10-diacetate-2-benzoate 13-ester with (2R,3S)—N-benzoyl-3-phenylisoserine]
Sol^y in water [1]: 0.3 to 30 mg/L | Sol^y in DMSO [2]: 50 g/L | solubility in water (in words) [3]: insoluble in water | lipophilicity (in words) [4]: highly lipophilic

CO[C@H]1C[C@@H]2CC[C@@H](C)[C@@](O)(O2)C(=O)C(=O)N2CCCC[C@H]2C(=O)O[C@H]([C@H](C)C[C@@H]2CC[C@@H](O)[C@H](OC)C2)CC(=O)[C@H](C)/C=C(\C)[C@@H](O)[C@@H](OC)C(=O)[C@H](C)C[C@H](C)/C=C/C=C/C=C/1C [Rapamycin]
Sol^y in water [1]: 0.69 mg/L | Sol^y in DMSO [2]: 25 g/L | Sol^y Ratio [2]: >4 × 10^4 | solubility in water (in words) [3]: insoluble in water | solubility in organic solvents (in words) [5]: freely soluble in benzyl alcohol, chloroform, acetone, and acetonitrile
